Patent publication US20250082760A1 (priority 2020, published 2025)
≈ marks a conversion by molar mass, not a printed value. Read-outs that look alike come from different tables or passages of the source.

What was measured:
[1] = system: convulsions in mice induced by electrical stimulation; assay: anticonvulsant effect on mice induced by electrical stimulation; type: in vivo
Method: (1) Divide 40 mice (20♀20) into 5 groups at random, with 8 mice (4♀4) in each group, and label No. 1 to No. 8 with picric acid respectively; (2) All mice were tested according to the order of groups and labels electrical stimulation, the initial voltage was 40V, the voltage was increased by 2.5V each time, the time interval between two electrical stimulations for the same mouse was 20 min, the threshold voltage value of convulsion and the time from convulsion to complete recovery were recorded, and the dead mice were discarded, qualified mice were screened; (3) After screening, 7 mice (2♀5) in the 40 mice could not recover after convulsions and died, and the remaining 33 qualified mice […]; (4) From standby 7 mice were screened out as a supplement, and the number of the dead mice in step (2) was marked with picric acid and added to the corresponding groups, so that a total of 40 (20♀20) qualified mice in 5 groups were finally obtained., all mice were weighed and recorded.
Positive drug: sodium valproate (specification 0.2 g), take 1 tablet in a mortar, add 20 ml of 0.5% CMC-Na solution while grinding, to a suspended state, set EP tube for use; test drug (compound 5): Dissolve in distilled water to 5, 10, and 20 mg/ml solutions, respectively, and set EP tubes for later use.
Electrical stimulation was performed 1.5 hours after the last administration, and each mouse was given the threshold voltage measured before to observe the experimental phenomenon and record whether there was convulsions and death occurred.
The first group was the blank control group, which was given 0.4 ml/20 g of 0.5% CMC-Na by gavage; the second group was the positive drug control group, which was given sodium valproate 200 mg/kg by gavage; the third group was the test drug the low-dose group, which was given 100 mg/kg of compound 5 by gavage; the fourth group was the test drug medium-dose group, which was given 200 mg/kg of compound 5 by gavage; the fifth group was the test drug high-dose group, which was given 400 mg/kg of compound 5 by gavage.
1.5 h after the last administration, electrical stimulation was performed according to the threshold voltage measured before each mouse, the experimental phenomenon was observed, and the occurrence of convulsions and death were recorded. If convulsion occurs, record the time of complete recovery; if no convulsion occurs, continue to increase the voltage with a gradient of 2.5V to measure the current threshold voltage value and recovery time.
Strictly follow the 5 periods of convulsion in mice, namely, latency period, rigid flexion period, hindlimb extension period, clonic period and recovery period to judge whether the mice have convulsions after electrical stimulation, and the phenomenon of death can not be recovered after convulsions.

[2] = water solubility experiments; type: physicochemical
[3] = system: hot plate pain threshold in ICR mice; assay: hot plate method, compound 2, intravenous administration; type: in vivo; settings: for Pain threshold before administration: baseline; for Pain threshold before administration / Pain threshold after administration: X ± SD
Method: (§1) 20 ICR mice, 18-22 g, half male and half male, were purchased from the animal room of Xi′an Jiaotong University School of Medicine; rearing conditions: room temperature 18-20° C., same-sex cages, 12-hour light, regular ventilation, conventional full-price solid feed feeding, and the bedding was changed every two days; 20 mice were randomly divided into 2 groups (low-dose test drug group, test drug high-dose group), 10 mice in each group (5 ♀95).
An appropriate amount of compound 2 was accurately weighed and dissolved in 5% glucose water to prepare a concentration of 2 mg/ml (dissolved state is good, basically transparent), which was utilized as a mother solution. During the test, according to the test requirements, it was diluted with 5% glucose aqueous solution to an appropriate concentration.
The first group was the high-dose test drug group, and the test drug was given 10 mg/kg by tail vein injection; the second group was the low-dose test drug group, and the test drug was given 3 mg/kg by tail vein injection.
(§2) The mice were placed in a hot plate apparatus at a temperature of 55±0.5° C., and the pain thresholds of the mice were measured and recorded before administration, 30 minutes after administration, 60 minutes after administration, and 120 minutes after administration.

[4] = physchem
[5] = system: hot plate pain threshold in ICR mice; assay: hot plate method, compound 1, intravenous administration; type: in vivo; settings: for Pain threshold before administration: baseline; for Pain threshold before administration / Pain threshold after administration: X ± SD
Method: as §1, with “same sex rearing in separate” for “same-sex”, “feeding,” for “feeding, and the”, “bedding” for “bedding was”, “group) with” for “group),”, “♀5).” for “♀95).”
An appropriate amount of compound 1 was accurately weighed and dissolved in 0.9% physiological saline to prepare a concentration of 5 mg/ml (dissolved state is good, basically transparent), which was used as a mother solution. During the test, according to the test requirements, diluted with normal saline to an appropriate concentration.
The first group was the low-dose test drug group, and the test drug was given 10 mg/kg by tail vein injection; the second group was the test drug high-dose group, and the test drug was given 15 mg/kg by tail vein injection.
as §2

[6] = system: hot plate pain threshold in mice; assay: hot plate method, compound 1, intragastric administration; type: in vivo; settings: for Pain response time Before administration: baseline, n 10; for Pain response time Before administration / Pain response time After administration: X ± SD; for Pain response time After administration / Pain response time extension rate: 60 min after administration; for Pain response time extension rate: blank group 3.9 ± 6.6
Method: All the mice participating in the experiment were subjected to hot plate pain threshold detection before the experiment, and qualified mice with pain threshold of 10-40 s were screened.
Accurately weigh an appropriate amount of compound 1, dissolve it in distilled water and prepare a mother liquor of 100 mg/ml, then dilute to 1.25 mg/ml (25 mg/kg), 2.5 mg/ml (50 mg/kg) with double distilled water respectively; accurately weigh an appropriate amount of the positive control drug gabapentin, dissolve in distilled water and prepare a 100 mg/ml mother solution, and then dilute to 10 mg/ml (200 mg/kg) with double distilled water. All medicines are prepared and utilized as needed.
40 only qualified mice were divided into 4 groups, half male and half female in each group. The first group is the blank group, no administration; the second group is the positive control (gabapentin) 25 mg/kg group; the third group is the test drug 25 mg/kg group; the fourth group is the test drug 50 mg/kg group 4. All were administered by gavage.
The mice were placed in a hot plate apparatus at a temperature of 55±0.5° C., and the pain thresholds of the mice were measured and recorded before administration and 60 min after administration.

[7] = 10 mg/kg tail vein group, hot plate 55±0.5° C.

SMILES: CCCC(CCC)C(=O)[O-].[Na+] [sodium valproate, reference compound]
- anti-electrical convulsion ability (threshold voltage increase) ([1]; compared with blank group, sodium valproate 200 mg/kg gavage, 1.5 h after last administration, p<0.05): significantly improve
- weight gain of mice ([1]; mouse, in vivo): no difference

SMILES: CC(C)c1cc(I)cc(C(C)C)c1OC(=O)CC1(CN)CCCCC1.Cl [Compound 2, 4-iodo-2,6-diisopropylphenyl 2-(1-(aminomethyl)cyclohexyl)acetate hydrochloride]
- solubility [2]: 13000 µg/mL
- Pain threshold before administration ([3]; 3 mg/kg tail vein group): 11.33 ± 4.08 s
- Pain threshold after administration ([3]; 3 mg/kg tail vein, 30 min): 12.41 ± 3.67 s
- Pain threshold after administration ([3]; 3 mg/kg tail vein, 60 min): 10.16 ± 3.38 s
- Pain threshold after administration ([3]; 3 mg/kg tail vein, 120 min): 6.47 ± 5.40 s
- Pain threshold before administration [3, 7]: 13.18 ± 3.33 s
- Pain threshold after administration ([3]; 10 mg/kg tail vein, 30 min): 18.10 ± 5.96 s
- Pain threshold after administration ([3]; 10 mg/kg tail vein, 60 min): 13.98 ± 6.78 s
- Pain threshold after administration ([3]; 10 mg/kg tail vein, 120 min): 14.18 ± 6.90 s
- analgesic effect in the hot plate test ([3]; intravenous, at 10 mg/kg performed well 30 minutes after injection): good analgesic effect
- logP [4]: 1.66

SMILES: CC(C)c1cccc(C(C)C)c1OC(=O)NCC1(CC(=O)O)CCCCC1 [Compound 3]
- solubility [2]: 80 µg/mL (≈ 213 µM)
- logP [4]: 2.38

SMILES: CC(C)c1cc(I)cc(C(C)C)c1OC(=O)NCC1(CC(=O)O)CCCCC1 [Compound 4]
- solubility [2]: 40 µg/mL (≈ 79.8 µM)
- logP [4]: 3.52

SMILES: CC(C)c1cccc(C(C)C)c1OC(=O)CC1(C[N+](C)(C)C)CCCCC1 [Compound 6, (1-(2-(2,6-diisopropylphenoxy)-2-oxoethyl)cyclohexyl)-N,N,N-tri-methylmethanaminium iodide]
- solubility [2]: 900 µg/mL
- logP ([4]; fat/water partition (phases not further specified)): 1.54

SMILES: CC(C)c1cccc(C(C)C)c1OC(=O)CC1(CN)CCCCC1.Cl [Compound 1, 2,6-diisopropylphenyl 2-(1-(aminomethyl)cyclohexyl)acetate hydrochloride]
- solubility [2]: 18000 µg/mL
- Pain threshold before administration [5, 7]: 8.92 ± 3.05 s
- Pain threshold after administration ([5]; 10 mg/kg tail vein, 30 min): 17.09 ± 6.05 s
- Pain threshold after administration ([5]; 10 mg/kg tail vein, 60 min): 16.96 ± 6.13 s
- Pain threshold after administration ([5]; 10 mg/kg tail vein, 120 min): 12.36 ± 5.75 s
- Pain threshold before administration ([5]; 15 mg/kg tail vein group): 10.90 ± 3.72 s
- Pain threshold after administration ([5]; 15 mg/kg tail vein, 30 min): 18.88 ± 6.06 s
- Pain threshold after administration ([5]; 15 mg/kg tail vein, 60 min): 13.49 ± 6.53 s
- Pain threshold after administration ([5]; 15 mg/kg tail vein, 120 min): 6.47 ± 5.40 s
- analgesic effect in the hot plate test ([5]; intravenous 10 and 15 mg/kg, 10 mg/kg best, good within 30-60 minutes after injection): good analgesic effect
- Pain response time Before administration ([6]; 25 mg/kg gavage group): 22.0 ± 10.2 s
- Pain response time After administration ([6]; 25 mg/kg gavage): 32.1 ± 14.5 s
- Pain response time extension rate ([6]; 25 mg/kg gavage): 59.3 ± 66.7 %
- Pain response time Before administration ([6]; 50 mg/kg gavage group): 20.0 ± 5.9 s
- Pain response time After administration ([6]; 50 mg/kg gavage): 40.2 ± 17.9 s
- Pain response time extension rate ([6]; 50 mg/kg gavage): 100.0 ± 91.1 %
- analgesic effect, hot plate, gavage ([6]; 25 and 50 mg/kg gavage, comparable to gabapentin): can prolong the reaction time of hot plate pain
- logP [4]: 1.1
